Test results as given in PubChem BioAssay (NCI).
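Five concentrations, 48 hours, 96-well plates. TGI denotes the concentration required for complete inhibition of growth.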

What was measured:
Assay in all cases: NCI tumour cell line growth inhibition, 48 h
786-0 renal = system: 786-0 renal
A549 NSCLC = system: A549 NSCLC
ACHN renal = system: ACHN renal
COLO 205 colon = system: COLO 205 colon
DLD-1 colon = system: DLD-1 colon
DMS 114 small cell lung = system: DMS 114 small cell lung
DMS 273 small cell lung = system: DMS 273 small cell lung
EKVX NSCLC = system: EKVX NSCLC
HCC-2998 colon = system: HCC-2998 colon
HCT-15 colon = system: HCT-15 colon
HL-60(TB) leukemia = system: HL-60(TB) leukemia
HOP-18 NSCLC = system: HOP-18 NSCLC
HT29 colon = system: HT29 colon
IGROV1 ovarian = system: IGROV1 ovarian
K-562 leukemia = system: K-562 leukemia
KM12 colon = system: KM12 colon
LOX IMVI melanoma = system: LOX IMVI melanoma
LXFL 529 NSCLC = system: LXFL 529 NSCLC
M14 melanoma = system: M14 melanoma
M19-MEL melanoma = system: M19-MEL melanoma
NCI-H226 lung = system: NCI-H226 lung
NCI-H23 lung = system: NCI-H23 lung
NCI-H460 lung = system: NCI-H460 lung
OVCAR-3 ovarian = system: OVCAR-3 ovarian
OVCAR-4 ovarian = system: OVCAR-4 ovarian
OVCAR-5 ovarian = system: OVCAR-5 ovarian
OVCAR-8 ovarian = system: OVCAR-8 ovarian
RPMI-8226 leukemia = system: RPMI-8226 leukemia
RXF 393 renal = system: RXF 393 renal
RXF-631 renal = system: RXF-631 renal
SF-268 CNS = system: SF-268 CNS
SF-295 CNS = system: SF-295 CNS
SF-539 CNS = system: SF-539 CNS
SK-MEL-28 melanoma = system: SK-MEL-28 melanoma
SK-MEL-5 melanoma = system: SK-MEL-5 melanoma
SK-OV-3 ovarian = system: SK-OV-3 ovarian
SN12C renal = system: SN12C renal
SNB-19 CNS = system: SNB-19 CNS
SNB-75 CNS = system: SNB-75 CNS
SNB-78 CNS = system: SNB-78 CNS
SR leukemia = system: SR leukemia
SW-620 colon = system: SW-620 colon
TK-10 renal = system: TK-10 renal
U251 CNS = system: U251 CNS
UACC-62 melanoma = system: UACC-62 melanoma
UO-31 renal = system: UO-31 renal
A498 renal = system: A498 renal
CAKI-1 renal = system: CAKI-1 renal
CCRF-CEM leukemia = system: CCRF-CEM leukemia
HCT-116 colon = system: HCT-116 colon
HOP-62 NSCLC = system: HOP-62 NSCLC
HOP-92 NSCLC = system: HOP-92 NSCLC
MALME-3M melanoma = system: MALME-3M melanoma
MOLT-4 leukemia = system: MOLT-4 leukemia
NCI-H522 lung = system: NCI-H522 lung
SK-MEL-2 melanoma = system: SK-MEL-2 melanoma
UACC-257 melanoma = system: UACC-257 melanoma
XF 498 CNS = system: XF 498 CNS

SMILES: O=C1C2c3[nH]c4ccccc4c3[C@@H]3CCCCCCCCCCC3C2C(=O)N1c1ccccc1 (stereo partly specified)
- TGI (786-0 renal): 35.7 µM
- TGI (A549 NSCLC): 62.4 µM
- TGI (ACHN renal): > 100 µM
- TGI (COLO 205 colon): 58.5 µM
- TGI (DLD-1 colon): > 100 µM
- TGI (DMS 114 small cell lung): 37 µM
- TGI (DMS 273 small cell lung): > 100 µM
- TGI (EKVX NSCLC): > 100 µM
- TGI (HCC-2998 colon): > 100 µM
- TGI (HCT-15 colon): > 100 µM
- TGI (HL-60(TB) leukemia): 30.2 µM
- TGI (HOP-18 NSCLC): 99.6 µM
- TGI (HT29 colon): > 100 µM
- TGI (IGROV1 ovarian): 43.6 µM
- TGI (K-562 leukemia): 29.5 µM
- TGI (KM12 colon): 42 µM
- TGI (LOX IMVI melanoma): 43.3 µM
- TGI (LXFL 529 NSCLC): 28.1 µM
- TGI (M14 melanoma): 34.3 µM
- TGI (M19-MEL melanoma): 57.4 µM
- TGI (NCI-H226 lung): 95 µM
- TGI (NCI-H23 lung): 37.5 µM
- TGI (NCI-H460 lung): 34.8 µM
- TGI (OVCAR-3 ovarian): 33 µM
- TGI (OVCAR-4 ovarian): 57.5 µM
- TGI (OVCAR-5 ovarian): > 100 µM
- TGI (OVCAR-8 ovarian): 42 µM
- TGI (RPMI-8226 leukemia): > 100 µM
- TGI (RXF 393 renal): 32.7 µM
- TGI (RXF-631 renal): 28 µM
- TGI (SF-268 CNS): 48.1 µM
- TGI (SF-295 CNS): 42.1 µM
- TGI (SF-539 CNS): 24.3 µM
- TGI (SK-MEL-28 melanoma): 58.8 µM
- TGI (SK-MEL-5 melanoma): > 100 µM
- TGI (SK-OV-3 ovarian): 23 µM
- TGI (SN12C renal): 54 µM
- TGI (SNB-19 CNS): 30.3 µM
- TGI (SNB-75 CNS): 6.44 µM
- TGI (SNB-78 CNS): 24.7 µM
- TGI (SR leukemia): 43.3 µM
- TGI (SW-620 colon): 35.5 µM
- TGI (TK-10 renal): 44.3 µM
- TGI (U251 CNS): 37.8 µM
- TGI (UACC-62 melanoma): 59.2 µM
- TGI (UO-31 renal): > 100 µM

SMILES: Nc1nc2c(ncn2C2OC(CO)C(O)C2N)c(=O)[nH]1 (stereo unspecified)
- TGI (786-0 renal): > 100 µM
- TGI (A498 renal): > 100 µM
- TGI (A549 NSCLC): > 100 µM
- TGI (ACHN renal): > 100 µM
- TGI (CAKI-1 renal): > 100 µM
- TGI (CCRF-CEM leukemia): > 100 µM
- TGI (COLO 205 colon): > 100 µM
- TGI (DLD-1 colon): > 100 µM
- TGI (DMS 114 small cell lung): > 100 µM
- TGI (DMS 273 small cell lung): > 100 µM
- TGI (HCC-2998 colon): > 100 µM
- TGI (HCT-116 colon): > 100 µM
- TGI (HCT-15 colon): > 100 µM
- TGI (HL-60(TB) leukemia): > 100 µM
- TGI (HOP-62 NSCLC): > 100 µM
- TGI (HOP-92 NSCLC): > 100 µM
- TGI (HT29 colon): > 100 µM
- TGI (IGROV1 ovarian): > 100 µM
- TGI (K-562 leukemia): > 100 µM
- TGI (KM12 colon): > 100 µM
- TGI (LOX IMVI melanoma): > 100 µM
- TGI (LXFL 529 NSCLC): > 100 µM
- TGI (M14 melanoma): > 100 µM
- TGI (M19-MEL melanoma): > 100 µM
- TGI (MALME-3M melanoma): > 100 µM
- TGI (MOLT-4 leukemia): > 100 µM
- TGI (NCI-H23 lung): > 100 µM
- TGI (NCI-H460 lung): > 100 µM
- TGI (NCI-H522 lung): > 100 µM
- TGI (OVCAR-3 ovarian): > 100 µM
- TGI (OVCAR-5 ovarian): > 100 µM
- TGI (OVCAR-8 ovarian): > 100 µM
- TGI (RXF-631 renal): > 100 µM
- TGI (SF-268 CNS): > 100 µM
- TGI (SF-295 CNS): > 100 µM
- TGI (SF-539 CNS): > 100 µM
- TGI (SK-MEL-2 melanoma): > 100 µM
- TGI (SK-MEL-28 melanoma): > 100 µM
- TGI (SK-OV-3 ovarian): > 100 µM
- TGI (SN12C renal): > 100 µM
- TGI (SNB-19 CNS): > 100 µM
- TGI (SNB-75 CNS): > 100 µM
- TGI (SNB-78 CNS): > 100 µM
- TGI (SW-620 colon): > 100 µM
- TGI (TK-10 renal): > 100 µM
- TGI (U251 CNS): > 100 µM
- TGI (UACC-257 melanoma): > 100 µM
- TGI (UACC-62 melanoma): > 100 µM
- TGI (UO-31 renal): > 100 µM
- TGI (XF 498 CNS): > 100 µM
